Reference: patent US20200399392A1, “INHIBITORS OF PLA2-G1B COFACTORS FOR TREATING CANCER” (priority 2018, published 2020)

How the values were obtained:
pSTAT5 NT in CD4 T cells = test: PLA2-GIB bioassay on CD4 T cells: pSTAT5 nuclear translocation in response to IL-7, confocal microscopy; format: cell-based, human; conditions: for effect on pSTAT5 NT: FIG. 5B; for nuclear translocation of phosphoSTAT5 (pSTAT5 NT) induced by IL-7: buffer, FIG. 1A; for pSTAT5 NT in response to IL-7: FIG. 2
Excerpt: Purification of Human CD4 T-lymphocytes—Venous blood was obtained from healthy volunteers through the EFS (Etablissement Français du Sang, Centre Necker-Cabanel, Paris). CD4 T-cells were purified from whole blood using RosetteSep Human CD4+ T cell Enrichment Cocktail (Stem Cell, 15062). This cocktail contains mouse and rat monoclonal antibodies purified from mouse ascites fluid or hybridoma culture supernatant, by affinity chromatography using protein A or Protein G sepharose. These antibodies are bound in bispecific tetrameric antibody complexes which are directed against cell surface antigens on human hematopoietic cells (CD8, CD16, CD19, CD36, CD56 CD66b, TCRγ/δ) and glycophorin A on red blood cells. The rosetteSep antibody cocktail crosslinks unwanted cells in human whole blood to multiple red blood cells, forming immunorosettes. This increases the density of unwanted cells, such that they pellet along with the free red blood cells when centrifuged over a buoyant density medium such as lymphocytes separation medium (Eurobio, CMSMSL01-01).
Whole blood was incubated with RosetteSep Human CD4+ T cell Enrichment Cocktail at 50 μl/ml for 20 minutes at room temperature under gentle shaking (100 rpm), diluted with an equal volume of PBS+2% foetal bovine serum (FBS) and mixed gently. The diluted samples were centrifuged 20 minutes at 1200×g on top of lymphocytes separation medium. The enriched cells were then collected from the density medium at plasma interface and washed twice with PBS+2% FBS. Cells were subsequently resuspended in RPMI 1640 medium (Lonza) supplemented with 5% FBS, 50 mM HEPES pH 7.4, glutamine, penicillin, streptomycin and fungizone (complete medium), counted with a Moxi Z mini automated cell counter (ORFLO, MXZ000). Cells suspension was adjusted at 7×10^6 cells/ml and equilibrated at least 2 h at 37° C. in a 5% CO2 humidified atmosphere.
The enriched CD4-T cell population was controlled by flow cytometry on a cytoflex (Beckman coulter). The quiescence of recovered CD4 T-cells was controlled by the low level of IL-2Rα (CD25).

gC1qR = biological target: T1, gC1qR (Homo sapiens, UniProt Q07021); test: gC1qR-peptides binding assay (ELISA on microplates); conditions: peptide coated, His-tag-gC1qR 0 to 3 μg/well, FIG. 12
T1 sequence (Q07021 74-282): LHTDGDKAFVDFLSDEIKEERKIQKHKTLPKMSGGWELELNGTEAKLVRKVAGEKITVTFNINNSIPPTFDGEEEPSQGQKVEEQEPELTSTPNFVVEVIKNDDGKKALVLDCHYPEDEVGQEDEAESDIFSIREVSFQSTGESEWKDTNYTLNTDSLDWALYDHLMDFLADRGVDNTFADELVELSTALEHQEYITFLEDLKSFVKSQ
Description: The unbound protein was removed; the wells washed 2× with TBST (20 mM Tris-HCl pH 7.5, 150 mM NaCl, and 0.05% Tween-20) and the unreacted sites blocked by incubation (30 min, room temp) with 300 μl of 3% BSA in TBST. After washing (2× with TBST), the microtiter plate bound peptides was incubated (2 h, room temp.) with different amount of His-tag-gC1qR ranging from 0 to 3 μg/well in triplicate. After washing (5 times with TBST), 100 μl of anti-His tag-HRP antibody (1:1000; 71840-3, Merck) in 3% BSA in TBST was added per well and incubated for 2 h at room temperature. Microplates wells were then washed (5 times with TBST) and 100 μl of TMB ELISA substrate standard solution (UP664781, Interchim) was added per well. Reaction was stopped with 100 μl per well of a H2SO4 solution at 0.16M and OD at 450 nm was measured on a microplate reader (Tecan Infinite M1000 Pro).
A scrambled peptide or a control peptide were used as control.

PLA2-GIB [1] = test: PLA2-GIB enzymatic assay on [3H] arachidonic acid labelled Jurkat E6.1 T cells; format: cell-based, human; conditions: Jurkat E6.1 cells pretreated 21 h, 200 nM PLA2-GIB, FIG. 15
Description: Jurkat E6.1 T cells (ECACC 88042803) or gC1qR KO Jurkat E6.1 T cells were incubated for 17 h at 5×10^5 cells/ml with 1 μCi/ml of arachidonic acid [5,6,8,9,11,14,15-^3H(N)] (Perkin Elmer, NET298Z250UC) in RPMI 1640 medium (Lonza) supplemented with 10% FBS, 50 mM HEPES pH 7.4, glutamine, penicillin, streptomycin and fungizone at 2 ml/well in 6-well plates at 37° C. in a 5% CO2 humidified atmosphere. Cells were washed twice with RPMI with 10% FBS by centrifugation at 300×g for 10 minutes at room temperature and then frozen in 90% FBS 10% DMSO at 10^7 cells/ml/vial at −80° C. Percent of [3H] arachidonic acid in CD4 T cells is the (1 minus ratio of [3H] arachidonic acid in the supernatant of CD4 T cells without cells (cpm/ml) on total [3H] arachidonic acid in supernatant and cells (cpm/ml).
To test PLA2-GIB activity on [3H] arachidonic acid labelled Jurkat E6.1 T lymphocytes, cells were unfrozen in 10% FBS RPMI preheated at 37° C. by centrifugation at 300×g for 10 minutes at room temperature, washed twice in 2.5% FBS RPMI, and equilibrated at 5×10^4 or 10^5 Jurkat E6.1 T cells/400 μl/well in 24-well polystyrene plates for 1 h30 at 37° C. in a 5% CO2 humidified atmosphere. Then HCV core solution or vehicle dilution in 2.5% FBS RPMI at 5.95 μM was mixed with an equal volume of a PLA2GIB solution at 630 nM or 2 μM 2.5% FBS RPMI and 100 μl were added per well at the same time for 2 h. For peptide treatments, cells were pretreated for 2 h, 4 h or 21 h, as indicated on figures, with 50 μl per well of peptide solutions at 110 μM or 55 μM in 2.5% FBS RPMI. Then 50 μl per well of PLA2-GIB at 630 nM or 2 μM 2.5% FBS RPMI or medium alone were added for 2 h. Cells and supernatant were collected in eppendorf tubes and centrifuged at 580×g for 10 minutes at room temperature. The [3H] arachidonic acid released in cell supernatant was quantified in 300 μl with 16 ml of Ultima gold (Perkin Elmer, 6013329) in low diffusion vials (Perkin Elmer, 6000477) on a counter (tri-Carb 2800 TR liquid scintillation analyzer, Perkin Elmer).

PLA2-GIB [2] = test: PLA2-GIB enzymatic assay on [3H] arachidonic acid labelled CD4 T cells; format: cell-based, human; conditions: SA protein A alone at 10, 25 and 50 μg/ml, FIG. 9A
Description: PLA2-GIB enzymatic assay on [3H] arachidonic acid labelled CD4 T cells or Jurkat E6.1 T cells—Purified CD4 T-cells were incubated for 16 h at 2×10^6 cells/ml with 1 μCi/ml of arachidonic acid [5,6,8,9,11,14,15-^3H(N)] (Perkin Elmer, NET298Z250UC) in RPMI 1640 medium (Lonza) supplemented with 10% FBS, 50 mM HEPES pH 7.4, glutamine, penicillin, streptomycin and fungizone at 2 ml/well in 6-well plates at 37° C. in a 5% CO2 humidified atmosphere. Cells were washed twice with RPMI with 10% FBS by centrifugation at 580×g for 10 minutes at room temperature and then frozen in 90% FBS 10% DMSO at 10^7 cells/ml/vial at −80° C. […]
To test PLA2-GIB activity on [3H] arachidonic acid labelled CD4 T lymphocytes, cells were unfrozen in 10% FBS RPMI preheated at 37° C. by centrifugation at 580×g for 10 minutes at room temperature, washed twice in 2.5% FBS RPMI, and equilibrated at 2×10^5 CD4 T cells/400 μl/well in 24-well polystyrene plates for 1 h30 at 37° C. in a 5% CO2 humidified atmosphere. […] The [3H] arachidonic acid released in cell supernatant was quantified in 300 μl with 16 ml of Ultima gold (Perkin Elmer, 6013329) in low diffusion vials (Perkin Elmer, 6000477) on a counter (tri-Carb 2800 TR liquid scintillation analyzer, Perkin Elmer). […]

[3] = biological target: gC1qR at the surface of human CD4 T cells / Jurkat E6.1 T cells (human) (UniProt Q07021); test: cell-based or functional assay

Molecule: C1q: Complement component C1q from human serum (Sigma C1740), natural ligand of gC1qR
- inhibition of pSTAT5 NT (pSTAT5 NT in CD4 T cells; C1q alone (10 μg/ml), FIG. 6A): 40%

Molecule: NH2-PWNATWTQRTLDDIW—COOH (H-PWNATWTQRTLDDIW-OH) [CTL peptide, control peptide for PEP3]
- effect on pSTAT5 NT (pSTAT5 NT in CD4 T cells; peptide alone, without PLA2-GIB): no effect
- effect on pSTAT5 NT (pSTAT5 NT in CD4 T cells; peptide with 5 nM of PLA2-GIB): no effect
- binding to gC1qR (gC1qR): essentially do not

Molecule: NH2-SGEGGWSNGSLVDIM-COOH (H-SGEGGWSNGSLVDIM-OH) [HP Pg]
- PLA2-GIB activity vs scrambled PEP3 (PLA2-GIB [1]): significantly increased

Molecule: NH2-WNWDSKILSDPAWNS—COOH (H-WNWDSKILSDPAWNS-OH) [Scrambled PEP3, scrambled version of PEP3 used as control]
- binding to gC1qR (gC1qR): essentially do not

Molecule: PLA2-GIB: Human group IB pancreatic phospholipase A2, recombinant, produced in E. coli or in CHO-S
- nuclear translocation of phosphoSTAT5 (pSTAT5 NT) induced by IL-7 (pSTAT5 NT in CD4 T cells; 5 nM of PLA2-GIB alone): does not affect
- pSTAT5 NT in response to IL-7 (pSTAT5 NT in CD4 T cells; 5 nM of PLA2-GIB, compared with more than 92% without PLA2-GIB): biologically similar
- inhibition of pSTAT5 NT (pSTAT5 NT in CD4 T cells; 75 nM of PLA2-GIB alone, FIG. 4): 49%
- nuclear translocation of phosphoSTAT5 (pSTAT5 NT) induced by IL-7 (pSTAT5 NT in CD4 T cells; 75 nM of PLA2-GIB alone): significantly decreases
- pSTAT5 NT in response to IL-7 (pSTAT5 NT in CD4 T cells; 75 nM of PLA2-GIB): 50%
- inhibition of pSTAT5 NT (pSTAT5 NT in CD4 T cells; 250 nM of PLA2-GIB alone, FIG. 4): 79%
- pSTAT5 NT in response to IL-7 (pSTAT5 NT in CD4 T cells; 250 nM of PLA2-GIB): 10%

Molecule: SA protein A: Staphylococcus aureus protein A, Sigma P6031
- release of [3H] arachidonic acids by CD4 T cells (PLA2-GIB [2]): slightly induces

Molecule: H-PWNASWSNKSLDDIW-OH [PEP3 peptide NH2-…-COOH]
- inhibition of pSTAT5 NT in CD4 T cells, 0.025 ug/ml PEP3 with 5 nM PLA2-GIB [3]: 18%
- inhibition of pSTAT5 NT in CD4 T cells, 0.5 ug/ml PEP3 with 5 nM PLA2-GIB [3]: 55%
- inhibition of pSTAT5 NT in CD4 T cells, 2.5 ug/ml PEP3 with 5 nM PLA2-GIB [3]: 51%
